The experiment has as its system HCT116. In words: In vitro cytotoxicity, cell colony formation assay. To be noted: HCT116; 72 h with drug, colonies counted after 7 days; concentration producing 50% inhibition of colony formation; read-out: IN VITRO ID 50. The experiment is classed as cell-based. As for the experimental part: In Vitro cytotoxicity measured by the cell colony formation assay
Four hundred cells (HCT116) were plated in 60 mm Petri dishes containing 2.7 mL of medium (modified McCoy's 5a medium containing 10% fetal bovine serum and 100 units/mL penicillin and […] streptomycin). The cells were incubated in a CO2 incubator at 37 °C for 5 h for attachment to the bottom of Petri dishes. The compounds identified in Example 2 were made up fresh in medium at ten times the final concentration, and then 0.3 mL of this stock solution was added to the 2.7 mL of medium in the dish. The cells were then incubated with drugs for 72 h at 37 ° C. At the end of incubation the drug-containing media were decanted, the dishes were rinsed with 4 mL of Hank's Balance Salt Solution (HBSS), 5 mL of fresh medium was added, and the dishes were returned to the incubator for colony formation. The cell colonies were counted using a colony counter after incubation for 7 days.
As for `CCOC(=O)OC1C(=O)C2(C)C(O)CC3OCC3(OC(C)=O)C2C(OC(=O)c2ccccc2)C2(O)CC(OC(=O)C(O)C(C=C(C)C)NC(=O)OC(C)(C)C)C(C)=C1C2(C)C` (stereo not shown) [Compound 1788], the IC50 is below 1 nM.

Turning to `CCOC(=O)OC1C(=O)C2(C)C(O)CC3OCC3(OC(C)=O)C2C(OC(=O)c2ccccc2)C2(O)CC(OC(=O)C(O)C(NC(=O)OC(C)(C)C)c3ccccn3)C(C)=C1C2(C)C` (stereo not shown) [Compound 1799], the IC50 was below 1 nM.

Turning to `CCOC(=O)OC1C(=O)C2(C)C(O)CC3OCC3(OC(C)=O)C2C(OC(=O)c2ccccc2)C2(O)CC(OC(=O)C(O)C(NC(=O)OC(C)(C)C)c3cccnc3)C(C)=C1C2(C)C` (stereo not shown) [Compound 1808], the IC50 is below 10 nM.

For the molecule `CCOC(=O)OC1C(=O)C2(C)C(O)CC3OCC3(OC(C)=O)C2C(OC(=O)c2ccccc2)C2(O)CC(OC(=O)C(O)C(NC(=O)OC(C)(C)C)c3ccncc3)C(C)=C1C2(C)C` (stereo not shown) [Compound 1811], the IC50 was below 1 nM.

Consider `CCOC(=O)OC1C(=O)C2(C)C(O)CC3OCC3(OC(C)=O)C2C(OC(=O)c2ccccc2)C2(O)CC(OC(=O)C(O)C(NC(=O)OC(C)(C)C)c3ccco3)C(C)=C1C2(C)C` (stereo not shown) [Compound 1822], for which the IC50 is below 1 nM.

`CCOC(=O)OC1C(=O)C2(C)C(O)CC3OCC3(OC(C)=O)C2C(OC(=O)c2ccccc2)C2(O)CC(OC(=O)C(O)C(NC(=O)OC(C)(C)C)c3ccsc3)C(C)=C1C2(C)C` (stereo not shown) [Compound 1841]: the IC50 is below 1 nM.

Consider `CCOC(=O)OC1C(=O)C2(C)C(O)CC3OCC3(OC(C)=O)C2C(OC(=O)c2ccccc2)C2(O)CC(OC(=O)C(O)C(NC(=O)OC(C)(C)C)C3CCC3)C(C)=C1C2(C)C` (stereo not shown) [Compound 1855], for which the IC50 is below 10 nM.

With `CCOC(=O)OC1C(=O)C2(C)C(O)CC3OCC3(OC(C)=O)C2C(OC(=O)c2ccccc2)C2(O)CC(OC(=O)C(O)C(NC(=O)OC(C)(C)C)c3ccc([N+](=O)[O-])cc3)C(C)=C1C2(C)C` (stereo not shown) [Compound 1866], the IC50 is below 1 nM.

On to `COC(=O)OC1C(=O)C2(C)C(O)CC3OCC3(OC(C)=O)C2C(OC(=O)c2ccccc2)C2(O)CC(OC(=O)C(O)C(C=C(C)C)NC(=O)OC(C)(C)C)C(C)=C1C2(C)C` (stereo not shown) [Compound 1999], for which the IC50 is below 1 nM.

On to `COC(=O)OC1C(=O)C2(C)C(O)CC3OCC3(OC(C)=O)C2C(OC(=O)c2ccccc2)C2(O)CC(OC(=O)C(O)C(NC(=O)OC(C)(C)C)c3ccccn3)C(C)=C1C2(C)C` (stereo not shown) [Compound 2002], for which the IC50 is below 1 nM.

With `COC(=O)OC1C(=O)C2(C)C(O)CC3OCC3(OC(C)=O)C2C(OC(=O)c2ccccc2)C2(O)CC(OC(=O)C(O)C(NC(=O)OC(C)(C)C)c3cccnc3)C(C)=C1C2(C)C` (stereo not shown) [Compound 2011], the IC50 is below 10 nM.

`COC(=O)OC1C(=O)C2(C)C(O)CC3OCC3(OC(C)=O)C2C(OC(=O)c2ccccc2)C2(O)CC(OC(=O)C(O)C(NC(=O)OC(C)(C)C)c3ccncc3)C(C)=C1C2(C)C` (stereo not shown) [Compound 2020]: the IC50 is below 1 nM.

Take `COC(=O)OC1C(=O)C2(C)C(O)CC3OCC3(OC(C)=O)C2C(OC(=O)c2ccccc2)C2(O)CC(OC(=O)C(O)C(NC(=O)OC(C)(C)C)c3cccs3)C(C)=C1C2(C)C` (stereo not shown) [Compound 2044]: the IC50 was below 1 nM.

`COC(=O)OC1C(=O)C2(C)C(O)CC3OCC3(OC(C)=O)C2C(OC(=O)c2ccccc2)C2(O)CC(OC(=O)C(O)C(NC(=O)OC(C)(C)C)c3ccsc3)C(C)=C1C2(C)C` (stereo not shown) [Compound 2050]: the IC50 is below 1 nM.

As for `COC(=O)OC1C(=O)C2(C)C(O)CC3OCC3(OC(C)=O)C2C(OC(=O)c2ccccc2)C2(O)CC(OC(=O)C(O)C(NC(=O)OC(C)(C)C)C(C)C)C(C)=C1C2(C)C` (stereo not shown) [Compound 2062], the IC50 is below 10 nM.

`COC(=O)OC1C(=O)C2(C)C(O)CC3OCC3(OC(C)=O)C2C(OC(=O)c2ccccc2)C2(O)CC(OC(=O)C(O)C(NC(=O)OC(C)(C)C)C3CCC3)C(C)=C1C2(C)C` (stereo not shown) [Compound 2077]: the IC50 was below 10 nM.

With `COC(=O)OC1C(=O)C2(C)C(O)CC3OCC3(OC(C)=O)C2C(OC(=O)c2ccccc2)C2(O)CC(OC(=O)C(O)C(NC(=O)OC(C)(C)C)c3ccc([N+](=O)[O-])cc3)C(C)=C1C2(C)C` (stereo not shown) [Compound 2088], the IC50 was below 1 nM.

Regarding `COC(=O)OC1C(=O)C2(C)C(O)CC3OCC3(OC(C)=O)C2C(OC(=O)c2ccccc2)C2(O)CC(OC(=O)C(O)C(NC(=O)OC(C)(C)C)c3ccccc3)C(C)=C1C2(C)C` (stereo not shown) [Compound 2092], the IC50 was below 1 nM.

As to `CCOC(=O)OC1C(=O)C2(C)C(O)CC3OCC3(OC(C)=O)C2C(OC(=O)c2ccccc2)C2(O)CC(OC(=O)C(O)C(NC(=O)c3ccccc3)c3cccs3)C(C)=C1C2(C)C` (stereo not shown) [Compound 2972], the IC50 is below 10 nM.

Consider `CCOC(=O)OC1C(=O)C2(C)C(O)CC3OCC3(OC(C)=O)C2C(OC(=O)c2ccccc2)C2(O)CC(OC(=O)C(O)C(NC(=O)OC(C)C)c3cccs3)C(C)=C1C2(C)C` (stereo not shown) [Compound 2999], for which the IC50 is below 1 nM.

In the case of `CCOC(=O)OC1C(=O)C2(C)C(O)CC3OCC3(OC(C)=O)C2C(OC(=O)c2ccccc2)C2(O)CC(OC(=O)C(O)C(NC(=O)OCC(C)C)c3cccs3)C(C)=C1C2(C)C` (stereo not shown) [Compound 3003], the IC50 is below 10 nM.

With `CCOC(=O)OC1C(=O)C2(C)C(O)CC3OCC3(OC(C)=O)C2C(OC(=O)c2ccccc2)C2(O)CC(OC(=O)C(O)C(NC(=O)c3ccco3)c3cccs3)C(C)=C1C2(C)C` (stereo not shown) [Compound 3011], the IC50 was below 1 nM.

As to `CCOC(=O)OC1C(=O)C2(C)C(O)CC3OCC3(OC(C)=O)C2C(OC(=O)c2ccccc2)C2(O)CC(OC(=O)C(O)C(NC(=O)c3cccs3)c3cccs3)C(C)=C1C2(C)C` (stereo not shown) [Compound 3020], the IC50 is below 1 nM.

Regarding `CCCC(=O)NC(c1cccs1)C(O)C(=O)OC1CC2(O)C(OC(=O)c3ccccc3)C3C4(OC(C)=O)COC4CC(O)C3(C)C(=O)C(OC(=O)OCC)C(=C1C)C2(C)C` (stereo not shown) [Compound 3155], the IC50 was below 1 nM.

In the case of `CCOC(=O)OC1C(=O)C2(C)C(O)CC3OCC3(OC(C)=O)C2C(OC(=O)c2ccccc2)C2(O)CC(OC(=O)C(O)C(NC(=O)OCC(C)C)c3ccco3)C(C)=C1C2(C)C` (stereo not shown) [Compound 3181], the IC50 is below 1 nM.

In the case of `CCOC(=O)OC1C(=O)C2(C)C(O)CC3OCC3(OC(C)=O)C2C(OC(=O)c2ccccc2)C2(O)CC(OC(=O)C(O)C(NC(=O)c3cccnc3)c3cccs3)C(C)=C1C2(C)C` (stereo not shown) [Compound 3300], the IC50 is below 10 nM.

As for `CCOC(=O)OC1C(=O)C2(C)C(O)CC3OCC3(OC(C)=O)C2C(OC(=O)c2ccccc2)C2(O)CC(OC(=O)C(O)C(NC(=O)c3ccccn3)c3cccs3)C(C)=C1C2(C)C` (stereo not shown) [Compound 3433], the IC50 was 22.3 nM.

For the molecule `CCCC(=O)NC(c1ccco1)C(O)C(=O)OC1CC2(O)C(OC(=O)c3ccccc3)C3C4(OC(C)=O)COC4CC(O)C3(C)C(=O)C(OC(=O)OCC)C(=C1C)C2(C)C` (stereo not shown) [Compound 3929], the IC50 is below 1 nM.

On to `CCOC(=O)OC1C(=O)C2(C)C(O)CC3OCC3(OC(C)=O)C2C(OC(=O)c2ccccc2)C2(O)CC(OC(=O)C(O)C(NC(=O)OC(C)C)c3ccco3)C(C)=C1C2(C)C` (stereo not shown) [Compound 3963], for which the IC50 is below 1 nM.

`CC=CC(=O)NC(c1ccco1)C(O)C(=O)OC1CC2(O)C(OC(=O)c3ccccc3)C3C4(OC(C)=O)COC4CC(O)C3(C)C(=O)C(OC(=O)OCC)C(=C1C)C2(C)C` (stereo not shown) [Compound 4000]: the IC50 is below 1 nM.

Turning to `CCOC(=O)OC1C(=O)C2(C)C(O)CC3OCC3(OC(C)=O)C2C(OC(=O)c2ccccc2)C2(O)CC(OC(=O)C(O)C(NC(=O)c3cccs3)c3ccco3)C(C)=C1C2(C)C` (stereo not shown) [Compound 4088], the IC50 was below 10 nM.

Source of the values: patent EP1285919A1, “C10 Carbonate substituted taxanes as antitumor agents” (Florida State University Research Foundation, Inc., priority 2001, dated 2003).
